This note sets out measurements from patent publication US20260327191A1, “GSK3a INHIBITORS AND METHODS OF USE THEREOF” (Blueprint Medicines Corporation, priority 2023, published 2026).

Structures are written as SMILES.

A word on the IC50: it is the concentration that inhibits the measured activity by half.

Experiment [1] deals with T1, GSK3B (Homo sapiens, UniProt P49841). Description: In vitro enzymatic activity assay, GSK3β. Type of experiment: biochemical. Set-up: Full length human GSK3α or GSK3B expressed as N-terminal GST fusion proteins; GST (N); purchased Carna Biosciences (Japan); host or cells: baculovirus host. The settings on record: 1.0 mM ATP, 1.0 μM peptide substrate, 120 min, 25° C, read-out: Enzyme GSK3β (IC50).
T1 sequence (P49841 whole entry, the tested form may be a part): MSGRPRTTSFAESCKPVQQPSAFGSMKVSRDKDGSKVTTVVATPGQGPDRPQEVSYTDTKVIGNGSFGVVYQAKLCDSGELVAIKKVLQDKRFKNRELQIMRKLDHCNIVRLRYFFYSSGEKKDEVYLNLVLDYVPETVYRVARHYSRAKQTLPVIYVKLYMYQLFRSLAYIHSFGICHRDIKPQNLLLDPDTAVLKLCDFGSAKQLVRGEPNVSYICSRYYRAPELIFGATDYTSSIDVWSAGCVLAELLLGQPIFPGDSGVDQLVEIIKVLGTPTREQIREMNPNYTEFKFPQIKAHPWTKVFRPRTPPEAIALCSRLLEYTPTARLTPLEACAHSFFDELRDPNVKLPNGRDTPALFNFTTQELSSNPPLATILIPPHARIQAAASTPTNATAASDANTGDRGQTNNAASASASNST

The target in experiment [2] is T2, GSK3A (Homo sapiens, UniProt P49840).
T2 construct: expressed in transfected cells
T2 sequence (P49840 whole entry): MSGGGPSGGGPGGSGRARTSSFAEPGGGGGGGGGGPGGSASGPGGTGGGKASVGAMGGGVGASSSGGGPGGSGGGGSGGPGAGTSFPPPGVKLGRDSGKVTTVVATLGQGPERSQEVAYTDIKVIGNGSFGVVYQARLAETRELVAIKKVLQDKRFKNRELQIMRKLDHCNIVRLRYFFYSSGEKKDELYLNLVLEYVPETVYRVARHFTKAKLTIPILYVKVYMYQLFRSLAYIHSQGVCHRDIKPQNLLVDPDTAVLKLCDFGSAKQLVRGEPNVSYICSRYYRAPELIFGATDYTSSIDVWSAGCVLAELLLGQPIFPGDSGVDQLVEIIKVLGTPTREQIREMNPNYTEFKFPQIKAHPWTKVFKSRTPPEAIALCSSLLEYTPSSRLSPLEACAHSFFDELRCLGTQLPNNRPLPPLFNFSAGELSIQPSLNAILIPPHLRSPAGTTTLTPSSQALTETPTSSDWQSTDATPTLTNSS
As to the kind of experiment: NanoBRET cellular target engagement assay, Nanoluc-GSK3A in HEK293 cells. Type of experiment: cell-based. The settings on record: NanoBRET GSK3α IC50, HEK293 cells, tracer K-8, 2 hours, 37° C. In general terms: In BRET a luciferase serves as donor, and the signal depends on an acceptor being close.

Experiment [3] addresses T3, human GSK3α (Homo sapiens, UniProt P49840).
T3 construct: Full length human GSK3α or GSK3B expressed as N-terminal GST fusion proteins; GST (N); purchased Carna Biosciences (Japan); host or cells: baculovirus host
As to the kind of experiment: In vitro enzymatic activity assay, GSK3α. Type of experiment: biochemical. The note with it: 1.0 mM ATP, 1.0 μM peptide substrate, 120 min, 25° C, read-out: Enzyme GSK3α (IC50).

Experiment [4] deals with T1, GSK3B. Description: NanoBRET cellular target engagement assay, Nanoluc-GSK3B in HEK293 cells. Type of experiment: cell-based. Set-up: expressed in transfected cells. The note with it: NanoBRET GSK3β IC50, HEK293 cells, tracer K-8, 2 hours, 37° C.

T3 sequence (P49840 whole entry, the tested form may be a part): as the sequence (P49840 whole entry) above

`Cc1cc(C(F)CF)cc(C)c1-n1cnc(N)c(C(=O)Nc2cncc(C3CCCCCN3)c2)c1=O` (single isomer, unassigned) [Example 112]: the IC50 in experiment [1] was found to be 493 nM; in experiment [2] it was 5.1 nM; in experiment [3], 10.5 nM; in experiment [4], 349 nM.
Take `COCc1cc(Cl)c(-n2cnc(N)c(C(=O)Nc3cncc([C@@H](C)N)c3)c2=O)c(Cl)c1` (single isomer, unassigned) [Example 66, (R)-4-amino-N-(5-(1-aminoethyl)pyridin-3-yl)-1-(2,6-dichloro-4-(methoxymethyl)phenyl)-6-oxo-1,6-dihydropyrimidine-5-carboxamide or (S)-4-amino-N-(5-(1-aminoethyl)pyridin-3-yl)-1-(2,6-dichloro-4-(methoxymethyl)phenyl)-6-oxo-1,6-dihydropyrimidine-5-carboxamide]: the half-maximal inhibitory concentration (IC50) was 349 nM in experiment [1], 2.9 nM in experiment [2], 6 nM in experiment [3] and 206 nM in experiment [4].
For `COCC(N)c1cncc(NC(=O)c2c(N)ncn(-c3c(Cl)cc(Cl)cc3Cl)c2=O)c1` (single isomer, unassigned) [Example 49, (R)-4-amino-N-(5-(1-amino-2-methoxyethyl)pyridin-3-yl)-6-oxo-1-(2,4,6-trichlorophenyl)-1,6-dihydropyrimidine-5-carboxamide or (S)-4-amino-N-(5-(1-amino-2-methoxyethyl)pyridin-3-yl)-6-oxo-1-(2,4,6-trichlorophenyl)-1,6-dihydropyrimidine-5-carboxamide], in that order: 161 nM, 2.8 nM, 2.5 nM and 144 nM.
As to `CCCOc1cc(Cl)c(-n2cnc(N)c(C(=O)Nc3cncc(CNCC)c3)c2=O)c(Cl)c1` [Example 86, 4-amino-1-(2,6-dichloro-4-propoxyphenyl)-N-(5-((ethylamino)methyl)pyridin-3-yl)-6-oxo-1,6-dihydropyrimidine-5-carboxamide], the half-inhibitory concentration (IC50) in experiment [1] worked out at 414 nM; in experiment [2], 4.2 nM; in experiment [3], 6.6 nM; in experiment [4], 321 nM.
The matching figures for `Cc1cc(CS(C)(=O)=O)cc(C)c1-n1cnc(N)c(C(=O)Nc2cncc([C@H]3CCCCN3)c2)c1=O` [Example 158, (R)-4-amino-1-(2,6-dimethyl-4-((methylsulfonyl)methyl)phenyl)-6-oxo-N-(5-(piperidin-2-yl)pyridin-3-yl)-1,6-dihydropyrimidine-5-carboxamide]: 355 nM, 37.3 nM, 9.3 nM and 532 nM.
Take `C[C@@H](N)c1cncc(NC(=O)c2c(N)ncn(-c3c(Cl)cc(OC4CC4)cc3Cl)c2=O)c1` (single isomer, unassigned) [Example 51, (R)-4-amino-N-(5-(1-aminoethyl)pyridin-3-yl)-1-(2,6-dichloro-4-cyclopropoxyphenyl)-6-oxo-1,6-dihydropyrimidine-5-carboxamide or (S)-4-amino-N-(5-(1-aminoethyl)pyridin-3-yl)-1-(2,6-dichloro-4-cyclopropoxyphenyl)-6-oxo-1,6-dihydropyrimidine-5-carboxamide]: the half-maximal inhibitory concentration (IC50) worked out at 142 nM in experiment [1], 2.2 nM in experiment [2], 2.8 nM in experiment [3] and 124 nM in experiment [4].
For the compound `CO[C@H](C)c1cc(C)c(-n2cnc(N)c(C(=O)Nc3cncc([C@@H](C)N)c3)c2=O)c(C)c1` (single isomer, unassigned) [Example 174], the 50% inhibitory concentration (IC50) was determined as 705 nM in experiment [1], 8.7 nM in experiment [2], 28 nM in experiment [3] and 560 nM in experiment [4].
The matching figures for `COCc1cc(C)c(-n2cnc(N)c(C(=O)Nc3cncc([C@H]4CCCCN4)c3)c2=O)c(C)c1` [Example 98, (R)-4-amino-1-(4-(methoxymethyl)-2,6-dimethylphenyl)-6-oxo-N-(5-(piperidin-2-yl)pyridin-3-yl)-1,6-dihydropyrimidine-5-carboxamide]: 254 nM, 2.5 nM, 4.6 nM and 134 nM.
For `Cc1cc(C(F)CF)cc(C)c1-n1cnc(N)c(C(=O)Nc2cncc(C3CCCCCN3)c2)c1=O` (single isomer, unassigned) [Example 115], in that order: 362 nM, 4.7 nM, 7.6 nM and 281 nM.
For the compound `COc1cc(Cl)c(-n2cnc(N)c(C(=O)Nc3cncc([C@H]4CCC[C@H](C)N4)c3)c2=O)c(Cl)c1` (single isomer, unassigned) [Example 84], the IC50 amounted to 254 nM in experiment [1], 2.5 nM in experiment [2], 3.8 nM in experiment [3] and 179 nM in experiment [4].
For the compound `COc1cc(C)c(-n2cnc(N)c(C(=O)N[C@@H]3CCC[C@H](CN)C3)c2=O)c(Cl)c1` (single isomer, unassigned) [Example 206, 4-amino-N-((1R,3S)-3-(aminomethyl)cyclohexyl)-1-((S)-2-chloro-4-methoxy-6-methylphenyl)-6-oxo-1,6-dihydropyrimidine-5-carboxamide or 4-amino-N-((1S,3R)-3-(aminomethyl)cyclohexyl)-1-((S)-2-chloro-4-methoxy-6-methylphenyl)-6-oxo-1,6-dihydropyrimidine-5-carboxamide], the IC50 in experiment [1] stood at 260 nM; in experiment [2], 3.1 nM; in experiment [3], 9.4 nM; in experiment [4], 139 nM.
Consider `Cc1cc(C(C)(F)F)cc(C)c1-n1cnc(N)c(C(=O)Nc2cncc([C@H]3CCCCN3)c2)c1=O` [Example 186, (R)-4-amino-1-(4-(1,1-difluoroethyl)-2,6-dimethylphenyl)-6-oxo-N-(5-(piperidin-2-yl)pyridin-3-yl)-1,6-dihydropyrimidine-5-carboxamide], for which the concentration for half-maximal inhibition (IC50) was found to be 169 nM in experiment [1], 2.1 nM in experiment [2], 4.4 nM in experiment [3] and 152 nM in experiment [4].
The matching figures for `CNCc1cncc(NC(=O)c2c(N)ncn(-c3c(C)cc(COC)cc3C)c2=O)c1` [Example 99, 4-amino-1-(4-(methoxymethyl)-2,6-dimethylphenyl)-N-(5-((methylamino)methyl)pyridin-3-yl)-6-oxo-1,6-dihydropyrimidine-5-carboxamide]: 1020 nM, 7.4 nM, 20.5 nM and 565 nM.
For `COCc1cc(Cl)c(-n2cnc(N)c(C(=O)Nc3cncc(CNC(C)C)c3)c2=O)c(Cl)c1` [Example 64, 4-amino-1-(2,6-dichloro-4-(methoxymethyl)phenyl)-N-(5-((isopropylamino)methyl)pyridin-3-yl)-6-oxo-1,6-dihydropyrimidine-5-carboxamide], in that order: 621 nM, 6.5 nM, 11.7 nM and 489 nM.
For `C[C@H](N)c1cncc(NC(=O)c2c(N)ncn(-c3c(Cl)cc(C#N)cc3Cl)c2=O)c1` (single isomer, unassigned) [Example 43, (S)-4-amino-N-(5-(1-aminoethyl)pyridin-3-yl)-1-(2,6-dichloro-4-cyanophenyl)-6-oxo-1,6-dihydropyrimidine-5-carboxamide or (R)-4-amino-N-(5-(1-aminoethyl)pyridin-3-yl)-1-(2,6-dichloro-4-cyanophenyl)-6-oxo-1,6-dihydropyrimidine-5-carboxamide], in that order: 283 nM, 5.4 nM, 4.9 nM and 285 nM.
With `CCNCc1cncc(NC(=O)c2c(N)ncn(-c3c(Cl)cc(C(F)(F)F)cc3Cl)c2=O)c1` [Example 22, 4-amino-1-(2,6-dichloro-4-(trifluoromethyl)phenyl)-N-(5-((ethylamino)methyl)pyridin-3-yl)-6-oxo-1,6-dihydropyrimidine-5-carboxamide], the IC50 stood at 389 nM in experiment [1], 5.6 nM in experiment [2], 8.4 nM in experiment [3] and 334 nM in experiment [4].
As for `CNCCc1c(NC(=O)c2c(N)ncn(-c3c(C)cccc3Cl)c2=O)cccc1OC` [Example 164, 4-amino-1-((S)-2-chloro-6-methylphenyl)-N-(3-methoxy-2-(2-(methylamino)ethyl)phenyl)-6-oxo-1,6-dihydropyrimidine-5-carboxamide], the IC50 in experiment [1] is 1850 nM; in experiment [2], 9.7 nM; in experiment [3] it was 29.4 nM; in experiment [4], 1170 nM.
On to `Nc1ncn(-c2c(Cl)cc(OC(F)F)cc2Cl)c(=O)c1C(=O)Nc1cncc([C@@H]2CCCCN2)c1` [Example 46, (S)-4-amino-1-(2,6-dichloro-4-(difluoromethoxy)phenyl)-6-oxo-N-(5-(piperidin-2-yl)pyridin-3-yl)-1,6-dihydropyrimidine-5-carboxamide], for which the IC50 was determined as 489 nM in experiment [1], 7.3 nM in experiment [2], 10.5 nM in experiment [3] and 395 nM in experiment [4].
